This note sets out measurements from ChEMBL document CHEMBL1201862, “PubChem BioAssay data set” (2004).

SMILES strings stand for the structures. Calls of active or inactive are those of the source.

For series [1], the target named is T1, Probable nicotinate-nucleotide adenylyltransferase (Staphylococcus aureus (strain N315), UniProt P65502). In kind it is functional, Staphylococcus aureus subsp. aureus N315. Conditions: read-out: IC50_Mean.
The target in series [2] is T1, Probable nicotinate-nucleotide adenylyltransferase. Format: functional, Staphylococcus aureus subsp. aureus N315.
In series [3] the target is T2, Sentrin-specific protease 8 (Homo sapiens, UniProt Q96LD8).
T2 sequence (Q96LD8 whole entry): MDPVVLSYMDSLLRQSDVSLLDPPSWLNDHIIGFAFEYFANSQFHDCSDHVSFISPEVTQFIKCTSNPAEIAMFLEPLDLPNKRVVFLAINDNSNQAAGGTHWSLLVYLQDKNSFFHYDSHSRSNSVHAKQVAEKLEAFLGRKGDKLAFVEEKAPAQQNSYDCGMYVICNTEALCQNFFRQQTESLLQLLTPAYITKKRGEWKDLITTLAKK
Format: functional.

Series [4] deals with T2, Sentrin-specific protease 8. In kind it is functional. This is another data set of the same source.
The target in a further series is Galanin receptor type 3 (Homo sapiens, UniProt O60755). Nature of the series: Fluorescence-based cell-based primary high throughput dose response assay to identify antagonists of the Galanin Receptor 3 (GalR3). In kind it is functional.
Another series in a line: cells. Conditions: HEK-CNG. Format: functional, cell-based.
A further series relates to Vero. Nature of the series: cells. In kind it is functional. Conditions: Chlorocebus sabaeus.
Series [5] addresses T3, Low molecular weight phosphotyrosine protein phosphatase (Homo sapiens, UniProt P24666).
T3 sequence (P24666 whole entry): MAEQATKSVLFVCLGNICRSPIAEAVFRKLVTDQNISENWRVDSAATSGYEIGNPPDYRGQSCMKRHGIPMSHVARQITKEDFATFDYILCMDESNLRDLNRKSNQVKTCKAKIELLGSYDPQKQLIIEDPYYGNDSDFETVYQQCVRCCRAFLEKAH
Format: functional. Conditions: read-out: IC50_Mean.

For series [6], the target named is T4, Small ubiquitin-related modifier 1 (Homo sapiens, UniProt P63165). Nature of the series: inhibitors of SUMO1 partner interactions, dose response, biochemical, FRET (AID 624383). Format: functional. Conditions: read-out: IC50_Mean.
Series [7] deals with T4, Small ubiquitin-related modifier 1. Nature of the series: inhibitors of SUMO1 peptide binding, dose response, biochemical, fluorescence polarization, uHTS hits (AID 624382). Format: functional. Conditions: read-out: IC50_Mean.
For a further series, the target named is T5, Protein RecA (Mycobacterium tuberculosis, UniProt P9WHJ3).
T5 sequence (P9WHJ3 whole entry): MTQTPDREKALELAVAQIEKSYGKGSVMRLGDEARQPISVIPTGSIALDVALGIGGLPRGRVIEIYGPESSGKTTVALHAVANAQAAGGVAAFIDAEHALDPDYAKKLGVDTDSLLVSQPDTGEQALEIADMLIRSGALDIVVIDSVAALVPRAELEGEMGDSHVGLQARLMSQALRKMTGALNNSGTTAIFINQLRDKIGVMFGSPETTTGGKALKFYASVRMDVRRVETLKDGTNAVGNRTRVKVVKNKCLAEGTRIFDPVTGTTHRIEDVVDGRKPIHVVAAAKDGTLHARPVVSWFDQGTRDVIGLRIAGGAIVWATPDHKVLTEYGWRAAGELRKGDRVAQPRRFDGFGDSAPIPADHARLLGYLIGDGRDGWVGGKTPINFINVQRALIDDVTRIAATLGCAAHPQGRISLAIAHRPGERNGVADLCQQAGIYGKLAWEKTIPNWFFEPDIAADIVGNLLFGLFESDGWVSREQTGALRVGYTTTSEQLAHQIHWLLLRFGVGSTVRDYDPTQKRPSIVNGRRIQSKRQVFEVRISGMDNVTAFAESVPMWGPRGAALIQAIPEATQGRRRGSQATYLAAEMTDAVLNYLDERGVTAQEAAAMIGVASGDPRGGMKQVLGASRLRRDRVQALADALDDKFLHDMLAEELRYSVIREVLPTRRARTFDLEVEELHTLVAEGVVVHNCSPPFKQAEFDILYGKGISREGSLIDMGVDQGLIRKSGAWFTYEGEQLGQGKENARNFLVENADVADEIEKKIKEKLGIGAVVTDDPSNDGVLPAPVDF
Nature of the series: Fluorescence Cell-Free Homogeneous Dose Retest to Identify Inhibitors of RecA-Intein Splicing Activity. [Related pubchem assays (depositor defined):AID2097, AID2223, AID489010, AID492950]. In kind it is functional.

Series [8] has as its target T6, Replicative DNA helicase DnaB (Mycobacterium tuberculosis, UniProt P9WMR3).
T6 sequence (P9WMR3 whole entry): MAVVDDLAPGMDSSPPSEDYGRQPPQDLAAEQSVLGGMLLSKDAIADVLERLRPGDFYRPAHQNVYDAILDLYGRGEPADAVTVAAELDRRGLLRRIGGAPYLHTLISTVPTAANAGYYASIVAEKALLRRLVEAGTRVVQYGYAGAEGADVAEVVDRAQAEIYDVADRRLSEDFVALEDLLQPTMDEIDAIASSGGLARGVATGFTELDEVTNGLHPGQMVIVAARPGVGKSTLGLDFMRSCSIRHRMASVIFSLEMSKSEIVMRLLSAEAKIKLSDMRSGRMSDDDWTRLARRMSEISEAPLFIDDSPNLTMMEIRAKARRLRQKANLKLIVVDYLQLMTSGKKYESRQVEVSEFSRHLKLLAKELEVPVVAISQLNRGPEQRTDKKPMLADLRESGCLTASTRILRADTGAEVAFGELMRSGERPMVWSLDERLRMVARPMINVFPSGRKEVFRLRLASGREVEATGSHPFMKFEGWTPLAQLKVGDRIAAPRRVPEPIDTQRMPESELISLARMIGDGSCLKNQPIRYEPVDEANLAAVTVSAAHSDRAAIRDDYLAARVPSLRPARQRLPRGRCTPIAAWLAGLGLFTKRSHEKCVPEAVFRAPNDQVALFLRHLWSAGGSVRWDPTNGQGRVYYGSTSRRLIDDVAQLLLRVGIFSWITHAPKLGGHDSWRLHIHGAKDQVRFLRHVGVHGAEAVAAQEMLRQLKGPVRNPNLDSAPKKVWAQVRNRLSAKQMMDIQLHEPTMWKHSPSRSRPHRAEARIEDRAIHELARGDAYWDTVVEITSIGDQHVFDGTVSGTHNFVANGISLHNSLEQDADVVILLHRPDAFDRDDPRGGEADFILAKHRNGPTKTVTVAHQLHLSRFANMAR
Nature of the series: DnaB intein splicing inhibitors, dose response, biochemical, cell-free fluorescence (AID 449749). Format: functional.

The target of series [9] is T7, Corticotropin-releasing factor receptor 2/Corticotropin-releasing factor-binding protein (Homo sapiens, UniProt P24387+Q13324).
T7 sequence (Q13324 whole entry): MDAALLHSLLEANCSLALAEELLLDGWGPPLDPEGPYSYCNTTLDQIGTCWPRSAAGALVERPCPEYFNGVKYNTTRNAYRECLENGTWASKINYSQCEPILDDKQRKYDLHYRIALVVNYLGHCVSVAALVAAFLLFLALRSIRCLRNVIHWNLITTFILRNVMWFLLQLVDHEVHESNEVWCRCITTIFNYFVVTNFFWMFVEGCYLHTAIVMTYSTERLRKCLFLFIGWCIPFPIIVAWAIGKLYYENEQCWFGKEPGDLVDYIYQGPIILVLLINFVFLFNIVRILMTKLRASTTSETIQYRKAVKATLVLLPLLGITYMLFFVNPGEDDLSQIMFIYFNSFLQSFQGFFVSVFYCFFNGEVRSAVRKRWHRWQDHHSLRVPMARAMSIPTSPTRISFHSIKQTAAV
T7 sequence (P24387 whole entry): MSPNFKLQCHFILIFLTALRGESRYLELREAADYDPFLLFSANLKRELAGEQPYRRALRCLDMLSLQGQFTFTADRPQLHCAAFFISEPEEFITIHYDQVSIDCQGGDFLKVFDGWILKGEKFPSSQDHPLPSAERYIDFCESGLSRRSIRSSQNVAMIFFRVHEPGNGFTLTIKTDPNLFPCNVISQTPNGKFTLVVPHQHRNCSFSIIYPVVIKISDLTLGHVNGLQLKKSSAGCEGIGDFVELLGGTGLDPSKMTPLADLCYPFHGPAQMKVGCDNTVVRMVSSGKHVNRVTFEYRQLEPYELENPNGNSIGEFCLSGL
Nature of the series: Dose Response confirmation of uHTS hits for small molecule antagonists of the CRF-binding protein and CRF-R2 receptor complex. Conditions: read-out: IC50_Mean. Format: functional.

Another series addresses Cytochrome P450 2C9 (Homo sapiens, UniProt P11712).
Series [10] concerns the target T7, Corticotropin-releasing factor receptor 2/Corticotropin-releasing factor-binding protein. Nature of the series: activators of CRF receptor 2 with binding protein – uHTS hits, confirmation (AID 602473). Conditions: read-out: EC50_Mean. In kind it is functional.
The next series deals with Cytochrome P450 3A4 (Homo sapiens, UniProt P08684).
The next series concerns the target T8, Cytochrome P450 1A2 (Homo sapiens, UniProt P05177).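 Further: PubChem cytochrome P450 panel assay, CYP1A2 panel member.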
T8 sequence (P05177 whole entry): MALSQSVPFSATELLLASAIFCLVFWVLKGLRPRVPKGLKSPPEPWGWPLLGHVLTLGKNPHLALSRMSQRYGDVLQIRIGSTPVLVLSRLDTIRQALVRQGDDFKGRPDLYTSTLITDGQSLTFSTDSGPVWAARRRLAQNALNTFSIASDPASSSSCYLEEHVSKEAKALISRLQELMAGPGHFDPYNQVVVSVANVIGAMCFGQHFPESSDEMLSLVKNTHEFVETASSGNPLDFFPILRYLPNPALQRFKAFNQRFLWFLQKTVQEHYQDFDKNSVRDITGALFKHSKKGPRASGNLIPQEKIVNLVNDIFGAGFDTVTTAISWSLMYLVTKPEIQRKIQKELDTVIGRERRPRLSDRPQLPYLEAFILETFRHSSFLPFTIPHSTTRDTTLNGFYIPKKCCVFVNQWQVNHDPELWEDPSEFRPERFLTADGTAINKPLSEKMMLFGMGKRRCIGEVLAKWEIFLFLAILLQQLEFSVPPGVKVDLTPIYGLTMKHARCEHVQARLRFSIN

Series [11] can be described thus: CRF-BP/CRF-R2 complex antagonists, dose response, cell-based, uHTS hits, 384-well (AID 651639). In kind it is functional, Homo sapiens. Conditions: read-out: IC50_Mean.

T4 sequence (P63165 whole entry): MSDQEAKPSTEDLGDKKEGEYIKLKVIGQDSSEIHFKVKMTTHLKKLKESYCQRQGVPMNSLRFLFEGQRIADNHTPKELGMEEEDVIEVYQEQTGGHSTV
T1 sequence (P65502 whole entry): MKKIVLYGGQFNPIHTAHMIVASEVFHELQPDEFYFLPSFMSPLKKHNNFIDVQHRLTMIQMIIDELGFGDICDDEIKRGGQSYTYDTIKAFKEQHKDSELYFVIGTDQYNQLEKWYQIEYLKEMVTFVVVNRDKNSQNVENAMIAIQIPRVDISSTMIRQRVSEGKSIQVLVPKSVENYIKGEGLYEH
Galanin receptor type 3, sequence (O60755 whole entry): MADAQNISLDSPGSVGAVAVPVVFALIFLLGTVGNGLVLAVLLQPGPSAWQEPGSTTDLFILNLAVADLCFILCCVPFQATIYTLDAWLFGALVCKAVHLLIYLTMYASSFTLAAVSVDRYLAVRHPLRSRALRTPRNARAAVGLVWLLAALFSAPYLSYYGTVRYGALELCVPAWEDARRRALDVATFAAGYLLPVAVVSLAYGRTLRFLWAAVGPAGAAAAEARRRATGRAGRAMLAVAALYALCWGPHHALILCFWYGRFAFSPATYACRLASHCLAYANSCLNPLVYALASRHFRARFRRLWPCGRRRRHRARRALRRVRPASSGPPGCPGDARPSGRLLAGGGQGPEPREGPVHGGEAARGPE
Cytochrome P450 3A4, sequence (P08684 whole entry): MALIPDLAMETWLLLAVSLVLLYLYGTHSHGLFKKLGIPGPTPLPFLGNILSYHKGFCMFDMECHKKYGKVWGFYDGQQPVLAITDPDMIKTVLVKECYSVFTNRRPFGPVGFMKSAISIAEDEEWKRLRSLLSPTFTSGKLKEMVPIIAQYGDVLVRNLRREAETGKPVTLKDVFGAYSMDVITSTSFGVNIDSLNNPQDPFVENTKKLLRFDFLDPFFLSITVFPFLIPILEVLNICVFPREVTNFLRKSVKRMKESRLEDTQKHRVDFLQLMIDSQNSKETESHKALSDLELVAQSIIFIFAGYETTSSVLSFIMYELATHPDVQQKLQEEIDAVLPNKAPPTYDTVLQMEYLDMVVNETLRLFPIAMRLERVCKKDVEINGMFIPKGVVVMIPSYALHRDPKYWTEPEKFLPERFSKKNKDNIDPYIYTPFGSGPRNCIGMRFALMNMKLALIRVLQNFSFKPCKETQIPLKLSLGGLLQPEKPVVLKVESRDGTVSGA
Cytochrome P450 2C9, sequence (P11712 whole entry): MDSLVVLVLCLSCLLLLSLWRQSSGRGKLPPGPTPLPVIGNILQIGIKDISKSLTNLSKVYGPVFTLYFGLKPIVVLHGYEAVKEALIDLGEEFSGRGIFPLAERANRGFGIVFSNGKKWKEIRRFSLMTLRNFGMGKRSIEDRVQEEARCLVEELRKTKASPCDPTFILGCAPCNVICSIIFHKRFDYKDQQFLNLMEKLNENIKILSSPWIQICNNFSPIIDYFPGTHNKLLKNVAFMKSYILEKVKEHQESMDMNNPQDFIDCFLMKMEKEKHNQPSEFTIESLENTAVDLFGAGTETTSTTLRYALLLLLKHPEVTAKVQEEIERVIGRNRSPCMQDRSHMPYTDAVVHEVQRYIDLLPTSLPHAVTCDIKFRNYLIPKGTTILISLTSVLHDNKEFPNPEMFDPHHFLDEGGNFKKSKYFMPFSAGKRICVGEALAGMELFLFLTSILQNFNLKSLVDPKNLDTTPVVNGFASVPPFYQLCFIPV

Turning to `COc1ccccc1-n1c(SCc2cc(=O)oc3cc(O)ccc23)nc2ccccc2c1=O`, the IC50 in series [1] is 40.2 µM (active); in series [2], 15.2 µM (active).

With `CCN(CC)c1ccc(NC2CC(=O)N(CCc3ccc(OC)cc3)C2=O)cc1` (configuration not stated), the IC50 in series [3] was 45.2 µM (active); in series [4] it was > 100 µM (inactive).

`CC(=O)OCC[N+](C)(C)C.[O-][Cl+3]([O-])([O-])[O-]`: the IC50 at Galanin receptor type 3 was 0.618 µM (active). In addition, the EC50 in the series “cells” is > 29.9 µM (inactive).

As to `Cc1cc(C(=O)CSc2nc(N)cc(O)n2)c(C)n1-c1ccc(OC(F)F)cc1`, at Galanin receptor type 3, the IC50 is 2.9 µM (active). The EC50 in the series “cells” is > 29.9 µM (inactive).

In general, CC50 refers to the concentration at which the toxic effect on the cells reaches its halfway point. Turning to `O=C(Nc1ccc2oc(=O)ccc2c1)c1ccc(-c2cccc([N+](=O)[O-])c2)o1`, the CC50 in the series with Vero was 8.41 µM (active). For the same compound, the IC50 was 25.5 µM (inactive) in series [5], 2.43 µM (active) in series [6] and > 66.6 µM (inactive) in series [7].

A word on the AC50: it is the midpoint of the concentration-response curve, whichever way the signal moves. `CC1=NN(c2ccc(S(=O)(=O)O)cc2C)C(=O)C1`: the IC50 in [3] is 21.8 µM (active); in series [4], 28 µM (active). Besides, the EC50 at Protein RecA is 4.57 µM (active). The AC50 in [8] was 3.99 µM (active).

In the case of `CCOc1cc(C)ccc1OCc1nnc(SCC(=O)c2cccc([N+](=O)[O-])c2)n1C`, the IC50 in series [9] was 2.52 µM (active); in series [11], 2.11 µM (active). Moreover, the results for the AC50 entry at Cytochrome P450 2C9, on Cytochrome P450 3A4 and on Cytochrome P450 1A2 were “inconclusive”, 1.41 µM (inconclusive) and 15.8 µM (inconclusive), respectively. Moreover, the EC50 in series [10] is > 53 µM (inactive).
